Assay results published in ChEMBL document CHEMBL2364335, “Structure-activity relationship data for chemical series of achiral agonists of the ghrelin (growth hormone secretagogue) receptor (Supplementary Bioactivity Data for publication CHEMBL1140573)”.

target: Growth hormone secretagogue receptor type 1 (Homo sapiens, UniProt Q92847); test: SUPPLEMENTARY: Agonist activity at GSHR by FLIPR assay. Same assay as CHEMBL941945; assay type: functional
Sequence (Q92847 whole entry): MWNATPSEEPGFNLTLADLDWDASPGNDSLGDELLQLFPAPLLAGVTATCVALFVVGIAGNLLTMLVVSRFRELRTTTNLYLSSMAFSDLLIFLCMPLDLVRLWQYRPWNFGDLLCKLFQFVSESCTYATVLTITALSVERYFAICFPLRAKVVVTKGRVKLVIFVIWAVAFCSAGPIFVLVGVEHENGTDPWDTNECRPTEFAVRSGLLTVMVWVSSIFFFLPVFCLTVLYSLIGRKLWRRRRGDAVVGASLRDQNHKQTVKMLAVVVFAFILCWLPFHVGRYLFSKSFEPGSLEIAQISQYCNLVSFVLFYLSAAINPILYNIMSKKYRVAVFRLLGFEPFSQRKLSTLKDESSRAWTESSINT

Row | SMILES | EC50 [nM]
1 | CC(C)Oc1ccc(N2C[C@@H](C)N[C@@H](C)C2)cc1NS(=O)(=O)c1ccc(-c2cccs2)cc1 | 15.8
2 | COc1cc(F)c(N2C[C@@H](C)N[C@@H](C)C2)cc1NS(=O)(=O)c1ccc(-c2ccccn2)s1 | 20
3 | COc1ccc(N2C[C@@H](C)N[C@@H](C)C2)cc1NS(=O)(=O)c1ccc(-c2cccc(F)c2F)cc1 | 31.6
4 | COc1ccc(N2CCN[C@H](C)C2)cc1NS(=O)(=O)c1ccc(-c2cccs2)cc1 | 31.6
5 | Cc1cc(S(=O)(=O)Nc2cc(N3C[C@@H](C)N[C@@H](C)C3)ccc2F)ccc1Br | 63.1
6 | Cc1cc(-c2cccs2)ccc1S(=O)(=O)Nc1cc(N2C[C@@H](C)N[C@@H](C)C2)ccc1F | 20
7 | COc1ccc(N2C[C@@H](C)N[C@@H](C)C2)nc1NS(=O)(=O)c1ccc(-c2ccoc2)cc1Cl | 25.1
8 | COc1ccc(N2C[C@@H](C)N[C@@H](C)C2)cc1NS(=O)(=O)c1cccc(-c2cc(C)cs2)c1 | 50.1
9 | COc1ccc(NS(=O)(=O)c2sc3ccc(Cl)cc3c2C)cc1N1C[C@@H](C)N[C@@H](C)C1 | 31.6
10 | Cc1ccc(-c2ccc(S(=O)(=O)Nc3cc(N4C[C@@H](C)N[C@@H](C)C4)ccn3)cc2F)o1 | 20
11 | COc1ccc(NS(=O)(=O)c2ccc(-c3ccoc3)cc2)cc1N1C[C@@H](C)N[C@@H](C)C1 | 12.6
12 | C[C@@H]1CN(c2cccc(NS(=O)(=O)c3ccc4ccccc4c3)c2)C[C@H](C)N1 | 15.8
13 | COc1ccc(N2C[C@@H](C)N[C@@H](C)C2)cc1NS(=O)(=O)c1ccc(-c2csnn2)s1 | 25.1
14 | COc1ccc(NS(=O)(=O)c2ccc(-c3ccc(C)cc3)cc2)cc1N1C[C@@H](C)N[C@@H](C)C1 | 79.4
15 | COc1ccc(NS(=O)(=O)c2ccc(-c3ccccc3C)s2)cc1N1C[C@@H](C)N[C@@H](C)C1 | 50.1
16 | COc1ccc(NS(=O)(=O)c2ccc(Oc3ccccc3)cc2)cc1N1C[C@@H](C)N[C@@H](C)C1 | 126
17 | C[C@@H]1CN(c2ccc(F)c(NS(=O)(=O)c3ccc(-c4ccoc4)cc3)c2)C[C@H](C)N1 | 25.1
18 | C[C@@H]1CN(c2cccc(NS(=O)(=O)c3cc4ccccc4s3)c2)C[C@H](C)N1 | 31.6
19 | COc1ccc(N2C[C@@H](C)N[C@@H](C)C2)cc1NS(=O)(=O)c1ccc(Br)s1 | 126

Row | SMILES | EC50 [nM]
20 | COc1ccc(N2C[C@@H](C)N[C@@H](C)C2)cc1NS(=O)(=O)c1ccc(-c2cccs2)nc1 | 50.1
21 | COc1ccc(N2C[C@@H](C)N[C@@H](C)C2)cc1NS(=O)(=O)c1ccc(-c2cccc(C)n2)c(F)c1 | 79.4
22 | Cc1ccc(N2C[C@@H](C)N[C@@H](C)C2)cc1NS(=O)(=O)c1ccc(Br)cc1 | 100
23 | C[C@@H]1CN(c2cccc(NS(=O)(=O)c3cccc(Cl)c3Cl)c2)C[C@H](C)N1 | 20
24 | C[C@@H]1CN(c2ccc(O)c(NS(=O)(=O)c3ccc(-c4ccco4)cc3)c2)C[C@H](C)N1 | 15.8
25 | COc1cc(Br)ccc1S(=O)(=O)Nc1cc(N2C[C@@H](C)N[C@@H](C)C2)ccc1F | 100
26 | C[C@@H]1CN(c2cccc(NS(=O)(=O)c3ccc(-n4cccn4)cc3)c2)C[C@H](C)N1 | 25.1
27 | COc1ccc(N2C[C@@H](C)N[C@@H](C)C2)cc1NS(=O)(=O)c1cc(C)c(-c2ccccc2F)s1 | 63.1
28 | COc1ccc(N2C[C@@H](C)N[C@@H](C)C2)cc1NS(=O)(=O)c1ccc2c(c1)CCC(C)(C)O2 | 31.6
29 | COc1ccc(N2C[C@@H](C)N[C@@H](C)C2)cc1NS(=O)(=O)c1cccc2cccnc12 | 50.1
30 | C[C@@H]1CN(c2ccc(F)c(NS(=O)(=O)c3ccc(-c4cccs4)cc3F)c2)C[C@H](C)N1 | 20
31 | COc1ccc(N2C[C@@H](C)N[C@@H](C)C2)cc1NS(=O)(=O)c1ccc(Cl)c(Cl)c1 | 50.1
32 | Cc1cc(-c2ccoc2)ccc1S(=O)(=O)Nc1cc(N2C[C@@H](C)N[C@@H](C)C2)ccc1F | 31.6
33 | COc1ccc(N2CCN[C@@H](C)C2)cc1NS(=O)(=O)c1ccc(-c2cccs2)cc1 | 158
34 | COc1ccc(N2C[C@@H](C)N[C@@H](C)C2)cc1NS(=O)(=O)c1ccc(-c2ccccc2F)cc1 | 20
35 | COc1ccc(N2C[C@@H](C)N[C@@H](C)C2)cc1NS(=O)(=O)c1cccc(-c2cccs2)c1 | 15.8
36 | Cc1ccc(-c2ccc(S(=O)(=O)Nc3cc(N4C[C@@H](C)N[C@@H](C)C4)c[nH]c3=O)cc2F)o1 | 10
37 | COc1ccc(NS(=O)(=O)c2ccc(N3CCCC3=O)cc2)cc1N1C[C@@H](C)N[C@@H](C)C1 | 79.4
38 | CCOc1ccc(N2C[C@@H](C)N[C@@H](C)C2)cc1NS(=O)(=O)c1ccc(-c2cccs2)cc1 | 12.6

More lines, in order of falling EC50, values ahead:

Row | EC50 [nM] | SMILES
39 | 10 | C[C@@H]1CN(c2ccc(F)c(NS(=O)(=O)c3ccc(-c4cccs4)c(F)c3)c2)C[C@H](C)N1
40 | 10 | COc1ccc(N2C[C@@H](C)N[C@@H](C)C2)cc1NS(=O)(=O)c1ccc(-c2cc(C)cs2)nc1
41 | 7.94 | COc1cc(F)c(N2C[C@@H](C)N[C@@H](C)C2)cc1NS(=O)(=O)c1ccc(-c2cccs2)cc1
42 | 7.94 | COc1ccc(N2C[C@@H](C)N[C@@H](C)C2)cc1NS(=O)(=O)c1ccc(-c2ccsc2)c(C)c1
43 | 7.94 | COc1ccc(N2C[C@@H](C)N[C@@H](C)C2)cc1NS(=O)(=O)c1ccc2ccccc2c1
44 | 7.94 | COc1ccc(N2C[C@@H](C)N[C@@H](C)C2)cc1NS(=O)(=O)c1ccc(-c2cccc(C)n2)cc1F
45 | 6.31 | COc1ccc(N2C[C@@H](C)N[C@@H](C)C2)cc1NS(=O)(=O)c1ccc(-c2ccc(C)s2)c(C)c1
46 | 6.31 | C[C@@H]1CN(c2cccc(NS(=O)(=O)c3ccc(-c4cccs4)cc3)c2)C[C@H](C)N1
47 | 6.31 | COCc1cccc(-c2ccc(S(=O)(=O)Nc3cc(N4C[C@@H](C)N[C@@H](C)C4)ccc3OC)cc2)c1
48 | 6.31 | COc1ccc(NS(=O)(=O)c2ccc(-n3cccn3)cc2)cc1N1C[C@@H](C)N[C@@H](C)C1
49 | 6.31 | COc1cc(-c2cc(C)cs2)ccc1S(=O)(=O)Nc1cccc(N2C[C@@H](C)N[C@@H](C)C2)c1
50 | 5.01 | COc1ccc(N2C[C@@H](C)N[C@@H](C)C2)nc1NS(=O)(=O)c1ccc(-c2cc(C)cs2)cc1Cl
51 | 5.01 | C[C@@H]1CN(c2ccc(F)c(NS(=O)(=O)c3ccc(-c4cccs4)cc3)c2)C[C@H](C)N1
52 | 3.98 | COc1ccc(N2C[C@@H](C)N[C@@H](C)C2)cc1NS(=O)(=O)c1ccc(-c2cccs2)s1
53 | 2.51 | COc1ccc(N2C[C@@H](C)N[C@@H](C)C2)cc1NS(=O)(=O)c1ccc(-c2csc(C)c2)cc1F
54 | 2 | COc1ccc(N2C[C@@H](C)N[C@@H](C)C2)cc1NS(=O)(=O)c1ccc(-c2ccco2)cc1C
55 | 2 | COc1ccc(N2C[C@@H](C)N[C@@H](C)C2)cc1NS(=O)(=O)c1ccc(-c2cc(C)cs2)s1
56 | 1.26 | COc1ccc(NS(=O)(=O)c2ccc(-c3cc(C)cs3)cc2)cc1N1C[C@@H](C)N[C@@H](C)C1
57 | 1 | COc1ccc(NS(=O)(=O)c2ccc(-c3cccs3)cc2C)cc1N1C[C@@H](C)N[C@@H](C)C1
58 | 1 | Cc1ccc(-c2ccc(S(=O)(=O)Nc3cccc(N4C[C@@H](C)N[C@@H](C)C4)n3)cc2F)o1
59 | 0.631 | COc1ccc(NS(=O)(=O)c2ccc(-c3cccc(C)n3)s2)cc1N1C[C@@H](C)N[C@@H](C)C1
60 | 0.501 | COc1ccc(N2C[C@@H](C)N[C@@H](C)C2)cc1NS(=O)(=O)c1ccc(-c2cc(C)cs2)cc1F
61 | 0.398 | COc1ccc(N2C[C@@H](C)N[C@@H](C)C2)cc1NS(=O)(=O)c1ccc(-c2cc(C)cs2)cc1C
